Reference: patent US8871767B2, “2-arylimidazo[1,2-B]pyridazine, 2-phenylimidazo[1,2-A]pyridine, and 2-phenylimidazo[1,2-A]pyrazine derivatives” (Hengrui (USA) Ltd., priority 2010, dated 2014)
Where two headings read alike, the source gives them in different places.

Test system: Hedgehog pathway activation (GLi-luciferase reporter) in Shh Light II reporter cells
Experiment: Hedgehog pathway activation on Shh Light II reporter cells measured by luciferase activity
Type: cell-based
Settings: hShh activation, read-out: Shh (IC50, inhibition of Hedgehog pathway activation)
Experimental: Hedgehog conditioned media was obtained by transfecting 293H cells with the full length gene encoding human Sonic Hedgehog (hShh) inserted into the pCMV6 expression vector, which contains a neomycin selectable marker and expresses the protein of interest with a C-terminal FLAG affinity tag. After selection in G418 containing media, conditioned media from Hedgehog expressing clones were tested for the ability to activate the hedgehog-responsive GLi-luciferase reporter in the Shh Light II cell line obtained by license from John Hopkins University (Taipale J, et al. Effects of oncogenic mutations in Smoothened and Patched can be reversed by cyclopamine. Nature 406: 1005-1009, 2000).
A test compound library was screened against hShh and 500 nM SAG (a direct agonist of the Smoothened receptor) activated 10T1/2/Smo#3 cells and Shh Light II reporter cells for the ability to block Hedgehog pathway activation. Concurrently, cell viability was measured by utilizing Celltiter-Blue® (Promega, Madison Wis.) viability assay. Active compounds were defined as those that inhibited Hedgehog signaling by greater than 50% with no concurrent loss in cell viability.
Their inhibitory activity against Hedgehog pathway activation on 10T1/2/Smo#3 cells as measured by ALP activity and Shh Light II reporter cells as measured by luciferase activity is shown in Table 1 below. In Table 1, +++ stands for an IC50 value that is less than 0.3 μM, ++ between 0.3 and 3 μM, + between 3 and 30 μM.
Additional data for compounds of the invention is shown below in Table 2. Their inhibitory activities against Hedgehog pathway activation are shown as IC50 values in μM on 10T1/2/Smo#3 cells as measured by ALP activity, or on Shh Light II reporter cells as measured by luciferase activity (hShh activation).

Row | Compound | IC50 (Mus musculus, Shh Light II) | IC50
1 | Cc1ccc(-c2cn3nc(-c4ccc(OCCCCCC(=O)NO)cc4C(F)(F)F)ccc3n2)cc1NC(=O)C(C)(C)C [Example 416, N-hydroxy-6-(4-(2-(4-methyl-3-pivalamidophenyl)imidazo[1,2-b]pyridazin-6-yl)-3-(trifluoromethyl)phenoxy)hexanamide] | 253 nM | 
2 | CC(C)(C)C(=O)Nc1cc(-c2cn3nc(N4CCC(N)CC4)ccc3n2)ccc1C(F)(F)F [Example 332, N-(5-(6-(4-aminopiperidin-1-yl)imidazo[1,2-b]pyridazin-2-yl)-2-(trifluoromethyl)phenyl)pivalamide] | 698 nM | 
3 | CC(C)(C)C(=O)Nc1cc(-c2cn3nc(-c4cccc(CO)c4)ccc3n2)ccc1C(F)(F)F [Example 323, N-(5-(6-(3-(hydroxymethyl)phenyl)imidazo[1,2-b]pyridazin-2-yl)-2-(trifluoromethyl)phenyl)pivalamide] | 2580 nM | 
4 | Cc1ccc(-c2cn3nc(-c4ccc(C(=N)NN)cc4C(F)(F)F)ccc3n2)cc1NC(=O)C(C)(C)C [compound 586] | 87 nM | 
5 | COC(=O)c1cccc(-c2ccc3nc(-c4ccc(C)c(NC(=O)C(C)(C)C)c4)cn3n2)c1 [compound 583] | 742 nM | 
6 | CC(C)c1ccccc1-c1ccc2nc(-c3ccc(C(F)(F)F)c(NC(=O)C(C)(C)C)c3)cn2n1 [Example 324, N-(5-(6-(2-isopropylphenyl)imidazo[1,2-b]pyridazin-2-yl)-2-(trifluoromethyl)phenyl)pivalamide] | 1460 nM | 
7 | COc1cncc(-c2ccc3nc(-c4ccc(C)c(NC(=O)C(C)(C)C)c4)cn3n2)c1 [Example 403, N-(5-(6-(5-methoxypyridin-3-yl)imidazo[1,2-b]pyridazin-2-yl)-2-methylphenyl)pivalamide] | 474 nM | 
8 | CC(C)(C)C(=O)Nc1cc(-c2cn3nc(N4CCC[C@@H]4CO)ccc3n2)ccc1C(F)(F)F [Example 469, (R)-N-(5-(6-(2-(hydroxymethyl)pyrrolidin-1-yl)imidazo[1,2-b]pyridazin-2-yl)-2-(trifluoromethyl)phenyl)pivalamide] | 339 nM | 
9 | Cc1ccc(-c2cn3nc(-c4ccc(OCC(=O)NO)cc4C(F)(F)F)ccc3n2)cc1NC(=O)C(C)(C)C [Example 455, N-(5-(6-(4-(2-(hydroxyamino)-2-oxoethoxy)-2-(trifluoromethyl)phenyl)imidazo[1,2-b]pyridazin-2-yl)-2-methylphenyl)pivalamide] | 3460 nM | 
10 | Cc1ccc(-c2cn3nc(-c4ccc(NC(=O)CCCCCCC(=O)NO)cc4)ccc3n2)cc1NC(=O)C(C)(C)C [compound 563] | 622 nM | 
11 | Cc1ccc(-c2cn3nc(-c4ccc(O)cc4F)ccc3n2)cc1NC(=O)C(C)(C)C [compound 547] | 793 nM | 
12 | CC(C)(C)C(=O)Nc1cc(-c2cn3nc(N4CCCC(O)C4)ccc3n2)ccc1C(F)(F)F (stereo not drawn) [Example 336, N-(5-(6-(3-hydroxypiperidin-1-yl)imidazo[1,2-b]pyridazin-2-yl)-2-(trifluoromethyl)phenyl)pivalamide] | 230 nM | 
13 | Cc1ccc(-c2cn3nc(-c4cccnc4C(F)(F)F)ccc3n2)cc1NC(=O)CCCCCCC(=O)O [Example 430, 8-(2-methyl-5-(6-(2-(trifluoromethyl)pyridin-3-yl)imidazo[1,2-b]pyridazin-2-yl)phenylamino)-8-oxooctanoic acid] |  | 5430 nM
14 | CCOC(=O)CCC(=O)Nc1cc(-c2cn3nc(-c4cccnc4C(F)(F)F)ccc3n2)ccc1C [Example 436, ethyl 4-(2-methyl-5-(6-(2-(trifluoromethyl)pyridin-3-yl)imidazo[1,2-b]pyridazin-2-yl)phenylamino)-4-oxobutanoate] | 975 nM | 
15 | Cc1ccc(-c2cn3nc(NCc4ccc(CO)cc4)ccc3n2)cc1NC(=O)C(C)(C)C [compound 593] | 2040 nM | 
16 | Cc1ccc(-c2cn3nc(-c4cncc(O)c4)ccc3n2)cc1NC(=O)C(C)(C)C [Example 405, N-(5-(6-(5-hydroxypyridin-3-yl)imidazo[1,2-b]pyridazin-2-yl)-2-methylphenyl)pivalamide] | 1980 nM | 
17 | Cc1ccc(-c2cn3nc(-c4ccc(C(F)(F)F)cn4)ccc3n2)cc1NC(=O)C(C)(C)C [Example 457, N-(2-methyl-5-(6-(5-(trifluoromethyl)pyridin-2-yl)imidazo[1,2-b]pyridazin-2-yl)phenyl)pivalamide] | 334 nM | 
18 | Cc1ccc(C2CN3N=C(c4cccnc4C(F)(F)F)C=CC3=N2)cc1NC(=O)C(C)(C)CN (stereo not drawn) [compound 622, 3-amino-2,2-dimethyl-N-(2-methyl-5-(6-(2-(trifluoromethyl)pyridin-3-yl)-2,3-dihydroimidazo[1,2-b]pyridazin-2-yl)phenyl)propanamide] | 534 nM | 
19 | Cc1ccc(-c2cn3nc(-c4cncc(C(F)(F)F)c4)ccc3n2)cc1NC(=O)C(C)(C)C [compound 536, N-(2-methyl-5-(6-(5-(trifluoromethyl)pyridin-3-yl)imidazo[1,2-b]pyridazin-2-yl)phenyl)pivalamide] | 370 nM | 
20 | COc1cc(-c2ccc3nc(-c4ccc(C)c(NC(=O)C(C)(C)C)c4)cn3n2)ncc1C(=O)O [Example 461, 4-methoxy-6-(2-(4-methyl-3-pivalamidophenyl)imidazo[1,2-b]pyridazin-6-yl)nicotinic acid] | 8390 nM | 
21 | Cc1ccc(-c2cn3nc(-c4c[nH]nc4C)ccc3n2)cc1NC(=O)C(C)(C)C [compound 500] | 450 nM | 
22 | CC(C)(C)C(=O)Nc1cc(-c2cn3nc(NC4CCCCC4O)ccc3n2)ccc1C(F)(F)F (stereo not drawn) [Example 333, N-(5-(6-(2-hydroxycyclohexylamino)imidazo[1,2-b]pyridazin-2-yl)-2-(trifluoromethyl)phenyl)pivalamide] | 893 nM | 
23 | Cc1ccc(-c2cn3nc(-c4cccc(C(=O)NOC5CCCCO5)c4)ccc3n2)cc1NC(=O)C(C)(C)C (stereo not drawn) [compound 585] | 925 nM | 
24 | Cc1ccc(-c2cn3nc(Cl)ccc3n2)cc1NS(=O)(=O)c1cccc(C=CC(=O)NO)c1 [compound 617] | 8600 nM | 
25 | Cc1ccc(-c2cn3nc(-c4cccnc4C(F)(F)F)ccc3n2)cc1NS(=O)(=O)c1cccc(C=CC(=O)Nc2ccccc2N)c1 [compound 624, N-(2-aminophenyl)-3-(3-(N-(2-methyl-5-(6-(2-(trifluoromethyl)pyridin-3-yl)imidazo[1,2-b]pyridazin-2-yl)phenyl)sulfamoyl)phenyl)acrylamide] | 824 nM | 
26 | CCOC(=O)CCCCCNC1CCN(c2ccc3nc(-c4ccc(C)c(NC(=O)C(C)(C)C)c4)cn3n2)C1 (stereo not drawn) [Example 414, ethyl 6-(1-(2-(4-methyl-3-pivalamidophenyl)imidazo[1,2-b]pyridazin-6-yl)pyrrolidin-3-ylamino)hexanoate] | 947 nM | 
27 | COC(=O)c1csc(-c2cc(-c3cn4nc(-c5cccnc5C(F)(F)F)ccc4n3)ccc2C)n1 [compound 506] | 1340 nM | 
28 | CC(C)(C)C(=O)Nc1cc(-c2cn3nc(N4CCC(N)C4)ccc3n2)ccc1C(F)(F)F (stereo not drawn) [Example 318, N-(5-(6-(3-aminopyrrolidin-1-yl)imidazo[1,2-b]pyridazin-2-yl)-2-(trifluoromethyl)phenyl)pivalamide] | 203 nM | 
29 | Cc1ccc(-c2cn3nc(-c4ccc(O)cc4)ccc3n2)cc1NC(=O)C(C)(C)C [compound 519] | 1700 nM | 
30 | CN1CCN(c2ccc3nc(-c4ccc(C(F)(F)F)c(NC(=O)C(C)(C)C)c4)cn3n2)CC1 [Example 316, N-(5-(6-(4-methylpiperazin-1-yl)imidazo[1,2-b]pyridazin-2-yl)-2-(trifluoromethyl)phenyl)pivalamide] | 937 nM | 
